SMILES strings stand for the structures. pIC50: −log10 of the molar value.

The source of these data is patent US20230295162A1 (EÖTVÖS LORÁND TUDOMÁNYEGYETEM, priority 2020, published 2023).

The subject of assay [1] is A-431 (human squamous carcinoma) cells. Kind of assay: Short term cytotoxicity, MTT assay. In kind it is cell-based. The note with it: 1 h treatment then 72 h culture, read-out: cytotoxicity expressed in IC50, A-431. As for the experimental part:
(§1) For the short term cytotoxicity studies the A-431 (human squamous carcinoma) and U-87 (human primary glioblastoma) cells were cultured in RPMI-1640 medium supplemented with 10% FCS (fetal calf serum, Sigma Ltd.), 2 mM L-glutamine, and […] gentamicin. Cell cultures were maintained at 37° C. in a humidified atmosphere with 5% CO2. The cells were grown to confluency and were distributed into 96-well plate with initial cell number of 5.0×10^3 per well. After 24 h incubation at 37° C., the cells were treated with the compounds in 200 μL final volume containing 1.0 v/v % DMSO. The cells were incubated with the compounds at 10^−4-10^2 μM concentration range for 1 h. Control cells were treated with serum free medium (RPMI-1640) only or with DMSO (c=1.0 v/v %) at 37° C. for 1 h. After incubation the cells were washed twice with serum free (RPMI-1640) medium. To determine the in vitro cytostatic effect, the cells were cultured for a further 72 h in 10% serum containing medium. MTT-solution ([…], 2 mg/mL, final concentration: 0.37 mg/mL) was added to each well. The respiratory chain [26, 27] and other electron transport systems reduce MTT and thereby form non-water-soluble violet formazane crystals within the cell. […] After 4 h of incubation the cells were centrifuged for 5 min (900 g) and the supernatant was removed. The obtained formazane crystals were dissolved in DMSO ([…]) and optical density (OD) of the samples was measured at λ=540 and 620 nm, respectively, using ELISA Reader (iEMS Reader, Labsystems, Finland). OD620 values were subtracted from OD540 values. The percent of cytostasis was calculated by using the following equation: Cytostatic effect (%)=[1−(ODtreated/ODcontrol)]×100 Values ODtreated and ODcontrol correspond to the optical densities of the treated and the control cells, respectively. In each case two independent experiments were carried out with 4 parallel measurements. […] The curves were defined using Microcal™ Origin1 (version 7.5) software: cytostasis was plotted as a function of concentration, fitted to a sigmoidal curve, and based on this curve, the half maximal inhibitory concentration (IC50) value was determined.

Assay [2] concerns U-87 (human primary glioblastoma) cells. Description: Short term cytotoxicity, MTT assay. It counts as cell-based. As to conditions: 1 h treatment then 72 h culture, read-out: cytotoxicity expressed in IC50, U-87. As for the experimental part: as §1
For assay [3], the system named is MDA-MB-231 human triple-negative breast cancer xenografts. Description: Antitumoral effect on subcutaneous MDA-MB-231 tumor xenografts in SCID mice (Example 23). In kind it is in vivo. As to conditions: intraperitoneal. As for the experimental part: MDA-MB-231 human triple-negative breast cancer xenografts were formed by subcutaneous inoculation of tumor cells into the back of the immunodeficient (SCID) mice. The investigated materials were injected into the animals intraperitoneal every two-three days for 3 weeks.
Forty SCID mice were included in the experiment. Each animal group was kept in separate cage during the experiments. On each cage, there was an identification card with birth date, the date of tumor cell injection, number and gender of animals. The injection of each substance was written on the identification card. Eight animals per substance were used and identified by ear cutting.
MDA-MB-231 human triple-negative breast cancer cells were grown in RPMI-1640 Medium (Sigma Chemical Co., St. Louis, MO), supplemented with 10% fetal bovine serum (Sigma) and 1% penicillin-streptomycin (Sigma) at 37° C. in a humidified atmosphere of 5% CO2. […]
During the experiment weight of the animals and size of the tumors were recorded.
Tumor volume was determined three times a week during the experiment.
Anti-tumor effect of compounds was evaluated also measuring tumor weight in each group after termination of experiment (FIGS. 64 and 65).

As to `O=C1C2=C(CCN(Cc3cccc(F)c3)C2)N2CCN=C2N1Cc1ccc(C(F)(F)F)cc1` [I/3, reference compound], the negative logarithm of the IC50 (pIC50) is over 6.70 in assay [1] and 5.38 in assay [2].
With `O=C1C2=C(CCN(Cc3cc(F)cc(F)c3)C2)N2CCN=C2N1Cc1ccc(Cl)cc1` [I/124, 4-(4-Chlorobenzyl)-7-(3,5-difluorobenzyl)-2,4,6,7,8,9-hexahydroimidazo[1,2-a]pyrido[3,4-e]pyrimidin-5(1H)-one], the “tumor volume / tumor growth” value in assay [3] (3 weeks, vs control (Student's t-test)) is “significant”. Besides, the “tumor weight after termination” value in assay [3] (after termination of experiment, vs control) is given as “highest, significant inhibition”.
